This experiment has as its target T1, Gal4-DBD-RXRα-LBD (Homo sapiens, UniProt P19793).
T1 sequence (P19793 227-458 limits assumed): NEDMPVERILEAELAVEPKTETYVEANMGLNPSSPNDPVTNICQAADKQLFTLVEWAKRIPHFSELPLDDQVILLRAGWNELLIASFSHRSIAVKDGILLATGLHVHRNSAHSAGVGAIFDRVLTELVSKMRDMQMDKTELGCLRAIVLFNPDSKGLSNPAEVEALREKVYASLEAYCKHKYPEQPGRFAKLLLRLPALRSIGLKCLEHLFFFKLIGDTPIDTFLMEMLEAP
In words: cell-based. Particulars: HEK-293T, read-out: inhibition of 9-cis-RA-induced RXRα transactivation.

Here are results for one molecule from PMC7170311 (Journal of Enzyme Inhibition and Medicinal Chemistry, 2020).

A value given as a limit tells only on which side of the number the result lay.

One may read the inhibition as the change of the read-out against control, counted positive when it falls. Regarding `Cc1ccc(NC(=O)NNC(=O)c2ccc(Nc3nccc(-c4cccnc4)n3)cc2)cc1` [Compound 6k, 2-(4-((4-(pyridin-3-yl)pyrimidin-2-yl)amino)benzoyl)-N-(p-tolyl)hydrazine-1-carboxamide], the inhibition at 1 µM is more than 50%.
